Where a name gives a salt, the structure may show the parent alone.
Each molecule was assayed against T1, hCCR2b (Homo sapiens, UniProt P41597) (assay: CCR2 binding assay ([125I]MCP-1, SPA, CHO cell membranes)). Settings: membranes from CHO cells expressing hCCR2b, 50 pM [125I]MCP-1; read-out: Binding hCCR2 (Ki).
T1 sequence (P41597 1-360 isoform P41597-2): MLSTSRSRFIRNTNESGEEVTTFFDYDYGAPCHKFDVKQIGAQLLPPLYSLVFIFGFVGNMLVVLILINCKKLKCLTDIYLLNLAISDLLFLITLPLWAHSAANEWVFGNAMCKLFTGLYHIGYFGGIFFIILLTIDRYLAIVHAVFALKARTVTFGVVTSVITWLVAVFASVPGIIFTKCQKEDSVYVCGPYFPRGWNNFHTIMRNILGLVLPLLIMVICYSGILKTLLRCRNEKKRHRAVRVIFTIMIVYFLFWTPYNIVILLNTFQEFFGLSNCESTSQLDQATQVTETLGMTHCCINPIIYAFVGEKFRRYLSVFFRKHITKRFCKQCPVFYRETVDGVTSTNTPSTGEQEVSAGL
Design: expressed in transfected cells; host or cells: CHO cells (membrane preparation)
Description: Membranes were prepared from CHO cells expressing mCCR2b or hCCR2b for use in ligand binding studies. Cells were suspended in 50mM Tris-HCL, pH 7.4, 2 mM EDTA, 250 mM Sucrose and 1x Complete EDTA-free protease inhibitor cocktail (Roche) (Buffer A), and disrupted at 4°C by N2 decompression using a cell disruption bomb (Parr Instrument). Following centrifugation at 200 RCF for 10 min at 4°C, the supernatant was suspended in buffer A and centrifuged again at 19000 RPM (RCSC rotor SS34 code 05 Sorvall Instruments DUPONT) for 90 min at 4°C. The pellet was then suspended in 10 mM HEPES, pH 7.4, 1 mM EDTA, 250 mM Sucrose, and 1x Complete EDTA-free protease inhibitor cocktail (Buffer B) and homogenized using a potter. Membranes were flash frozen in liquid N2 and stored at -80°C. [125I] Monocyte Chemoattractant Protein -1 (MCP-1) (25µCi; Perkin Elmer) was added to test compounds in DMSO (1% final). Membranes and WGA SPA beads (GE Healthcare) were added to give a final volume of 100 µl in 96-well plates with assay concentrations of 50 pM or 100 pM [125I]Monocyte Chemoattractant Protein -1 (respectively for hCCR2b or mCCR2b), 50 mM HEPES, pH 7.4, 5 mM MgCl2, 1 mM CaCl2, 0.1% BSA, 1-5 µg/well of membranes and 100 µg/well of WGA SPA beads. Binding was performed for 90 min at RT with strong agitation of speed 5 (Heidolph Titramax 100 SCITEC) and bound radioactivity was measured on a PerkinElmer 1450 MicroBeta counter. Specific binding was calculated by subtracting remaining radioactivity in the presence of 1000-fold excess of unlabeled compound. Binding data were analyzed using the Genedata Screener® software.
For `CC1=C(C(=O)N2CCc3ncc(C(F)(F)F)cc3C2)C2(CCN(CC3CCOC3)CC2)OC1=O` (centres unmarked) [Compound 46, 3-methyl-8-(tetrahydrofuran-3-ylmethyl)-4-{[3-(trifluoromethyl)-7,8-dihydro-1,6-naphthyridin-6(5H)-yl]carbonyl}-1-oxa-8-azaspiro[4.5]dec-3-en-2-one], the Ki was under 50 nM.
For `CCN1CCC2(CC1)OC(=O)C(C)=C2C(=O)N1CCN(c2cc(Cl)cc(Cl)c2)CC1` [Compound 114, 4-{[4-(3,5-dichlorophenyl)piperazin-1-yl]carbonyl}-8-ethyl-3-methyl-1-oxa-8-azaspiro[4.5]dec-3-en-2-one], the Ki was 100 to 500 nM.
Work on `CC1=C(C(=O)N2CCc3ncc(C(F)(F)F)cc3C2)C2(CCN(C3CCOCC3)CC2)OC1=O` [Compound 119, 3-methyl-8-(tetrahydro-2H-pyran-4-yl)-4-{[3-(trifluoromethyl)-7,8-dihydro-1,6-naphthyridin-6(5H)-yl]carbonyl}-1-oxa-8-azaspiro[4.5]dec-3-en-2-one] yielded a Ki of under 50 nM.
In the case of `CC1=C(C(=O)N2CCc3ccc(C(F)(F)F)cc3C2)C2(CCN(C3CCOC3)CC2)OC1=O` (centres unmarked) [Compound 34, 3-methyl-8-(tetrahydrofuran-3-yl)-4-{[7-(trifluoromethyl)-3,4-dihydroisoquinolin-2(H)-yl]carbonyl}-1-oxa-8-azaspiro[4.5]dec-3-en-2-one], the Ki is reported as under 50 nM.
For `CC1=C(C(=O)N2CCc3ccc(C(F)(F)F)cc3C2)C2(CCN(CC3CCOC3)CC2)OC1=O` (centres unmarked) [Compound 33, 3-methyl-8-(tetrahydrofuran-3-ylmethyl)-4-{[7-(trifluoromethyl)-3,4-dihydroisoquinolin-2(1H)-yl]carbonyl}-1-oxa-8-azaspiro[4.5]dec-3-en-2-one], the Ki was under 50 nM.
In the case of `CCN1CCC2(CC1)OC(=O)C(C)=C2C(=O)N1CCC(Nc2ccc(C(F)(F)F)cc2)C1` (centres unmarked) [Compound 83, 8-ethyl-3-methyl-4-[(3-{[4-(trifluoromethyl)phenyl]amino}pyrrolidin-1-yl)carbonyl]-1-oxa-8-azaspiro[4.5]dec-3-en-2-one], the Ki is reported as under 50 nM.
With `CCN1CCC2(CC1)OC(=O)C(C)=C2C(=O)N1CCN(c2cccc(F)c2)CC1` [Compound 80, 8-ethyl-4-{[4-(3-fluorophenyl)piperazin-1-yl]carbonyl}-3-methyl-1-oxa-8-azaspiro[4.5]dec-3-en-2-one] the Ki was 500 to 2000 nM.
For `CC1=C(C(=O)N2CCc3ncc(C(F)(F)F)cc3C2)C2(CCNCC2)OC1=O` [Compound 78, 3-methyl-4-{[3-(trifluoromethyl)-7,8-dihydro-1,6-naphthyridin-6(5H)-yl]carbonyl}-1-oxa-8-azaspiro[4.5]dec-3-en-2-one, hydrocloride salt], the Ki was 100 to 500 nM.
Work on `CCN1CCC2(CC1)OC(=O)C(C)=C2C(=O)N1CCc2ccc(Cl)cc2C1` [Compound 50, 4-[(7-chloro-3,4-dihydroisoquinolin-2(1H)-yl)carbonyl]-8-ethyl-3-methyl-1-oxa-8-azaspiro[4.5]dec-3-en-2-one] yielded a Ki of under 50 nM.
Molecule `CC1=C(C(=O)N2CCc3ncc(C(F)(F)F)cc3C2)C2(CCN(C)CC2)OC1=O` [Compound 122, 3,8-dimethyl-4-{[3-(trifluoromethyl)-7,8-dihydro-1,6-naphthyridin-6(5H)-yl]carbonyl}-1-oxa-8-azaspiro[4.5]dec-3-en-2-one] has a Ki of under 50 nM.
With `CCN1CCC2(CC1)OC(=O)C(C)=C2C(=O)N1CCCN(c2cccc(F)c2)CC1` [Compound 52, 8-ethyl-4-{[4-(3-fluorophenyl)-1,4-diazepan-1-yl]carbonyl}-3-methyl-1-oxa-8-azaspiro[4.5]dec-3-en-2-one] the Ki was 500 to 2000 nM.
`CC1=C(C(=O)N2CCN(c3cccc(C(F)(F)F)c3)CC2)C2(CCN(CCCc3ccccc3)CC2)OC1=O` [Example 5, 3-methyl-8-(3-phenylpropyl)-4-({4-[3-(trifluoromethyl)phenyl]piperazin-1-yl}carbonyl)-1-oxa-8-azaspiro[4.5]dec-3-en-2-one] was tested, and the Ki was under 50 nM.
In the case of `COC1COCCC1N1CCC2(CC1)OC(=O)C(C)=C2C(=O)N1CCc2ccc(C(F)(F)F)cc2C1` (single isomer, unassigned; (-)) [Compound 40, (-)-1,5-anhydro-2,3-dideoxy-4-O-methyl-3-(3-methyl-2-oxo-4-{[7-(trifluoromethyl)-3,4-dihydroisoquinolin-2(1H)-yl]carbonyl}-1-oxa-8-azaspiro[4.5]dec-3-en-8-yl) -pentitol], the Ki is reported as under 50 nM.
For `CC1=C(C(=O)N2CCN(c3cccc(C(F)(F)F)c3)CC2)C2(CCN(C3CCCOC3)CC2)OC1=O` (centres unmarked) [Compound 23], the Ki was under 50 nM.
`CC1=C(C(=O)N2CCN(c3cccc(C(F)(F)F)c3)CC2)C2(CCN(CCc3cccc(Cl)c3)CC2)OC1=O` [Compound 15, 8-[2-(3-chlorophenyl)ethyl]-3-methyl-4-({4-[3-(trifluoromethyl)phenyl]piperazin-1-yl}carbonyl)-1-oxa-8-azaspiro[4.5]dec-3-en-2-one] gave a Ki of under 50 nM.
Work on `CC1=C(C(=O)N2CCc3ccc(C(F)(F)F)cc3C2)C2(CCN(CCO)CC2)OC1=O` [Compound 20, 8-(2-hydroxyethyl)-3-methyl-4-{[7-(trifluoromethyl)-3,4-dihydroisoquinolin-2(1H)-yl]carbonyl}-1-oxa-8-azaspiro[4.5]dec-3-en-2-one] yielded a Ki of under 50 nM.
In the case of `CC1=C(C(=O)N2CCc3ccc(C(F)(F)F)cc3C2)C2(CCN(C3CCN(C)CC3)CC2)OC1=O` [Compound 38, 3-methyl-8-(1-methylpiperidin-4-yl)-4-{[7-(trifluoromethyl)-3,4-dihydroisoquinolin-2(1H)-yl]carbonyl}-1-oxa-8-azaspiro[4.5]dec-3-en-2-one], the Ki is reported as 100 to 500 nM.
`CC1=C(C(=O)N2CCN(c3cccc(C(F)(F)F)c3)CC2)C2(CCN(CCCC(=O)O)CC2)OC1=O` [Compound 11, 4-[3-methyl-2-oxo-4-({4-[3-(trifluoromethyl)phenyl]piperazin-1-yl}carbonyl)-1-oxa-8-azaspiro[4.5]dec-3-en-8-yl]butanoic acid] gave a Ki of 100 to 500 nM.
`CC1=C(C(=O)N2CCN(c3cccc(C(F)(F)F)c3)CC2)C2(CCN(CC(C)C)CC2)OC1=O` [Compound 103, 8-isobutyl-3-methyl-4-({4-[3-(trifluoromethyl)phenyl]piperazin-1-yl}carbonyl)-1-oxa-8-azaspiro[4.5]dec-3-en-2-one] showed a Ki of under 50 nM.
For `CCN1CCC2(CC1)OC(=O)C(C)=C2C(=O)N1CCN(c2cccc(OC(F)(F)F)c2)CC1` [Compound 81, 8-ethyl-3-methyl-4-({4-[3-(trifluoromethoxy)phenyl]piperazin-1-yl}carbonyl)-1-oxa-8-azaspiro[4.5]dec-3-en-2-one], the Ki was under 50 nM.
`CCN1CCC2(CC1)OC(=O)C(C)=C2C(=O)Nc1ccc(-c2cccc(C(F)(F)F)c2)cc1` [Compound 98, 8-ethyl-3-methyl-2-oxo-N-[3'-(trifluoromethyl)biphenyl-4-yl]-1-oxa-8-azaspiro[4.5]dec-3-ene-4-carboxamide] showed a Ki of 500 to 2000 nM.
`CC1=C(C(=O)N2CCN(c3cccc(C(F)(F)F)c3)CC2)C2(CCN(C(C)C)CC2)OC1=O` [Compound 101, 8-isopropyl-3-methyl-4-({4-[3-(trifluoromethyl)phenyl]piperazin-1-yl}carbonyl)-1-oxa-8-azaspiro[4.5]dec-3-en-2-one] showed a Ki of under 50 nM.
`CC1=C(C(=O)N2CCc3ccc(C(F)(F)F)cc3C2)C2(CCN(CCN3CCOCC3)CC2)OC1=O` [Compound 19, 3-methyl-8-(2-morpholin-4-ylethyl)-4-{[7-(trifluoromethyl)-3,4-dihydroisoquinolin-2(1H)-yl]carbonyl}-1-oxa-8-azaspiro[4.5]dec-3-en-2-one] was tested, and the Ki was under 50 nM.
`CC1=C(C(=O)N2CCc3ncc(C(F)(F)F)cc3C2)C2(CCN(C3CCC(O)CC3)CC2)OC1=O` (centres unmarked) [Compound 45, 8-(4-hydroxycyclohexyl)-3-methyl-4-{[3-(trifluoromethyl)-7,8-dihydro-1,6-naphthyridin-6(5H)-yl]carbonyl}-1-oxa-8-azaspiro[4.5]dec-3-en-2-one] showed a Ki of under 50 nM.
With `COCCCN1CCC2(CC1)OC(=O)C(C)=C2C(=O)N1CCN(c2cccc(C(F)(F)F)c2)CC1` [Example 2, 8-(3-methoxypropyl)-3-methyl-4-({4-[3-(trifluoromethyl)phenyl]piperazin-1-yl}carbonyl)-1-oxa-8-azaspiro[4.5]dec-3-en-2-one] the Ki was under 50 nM.
`CC1=C(C(=O)N2CCc3ccc(C(F)(F)F)cc3C2)C2(CCN(C3CCCCC3)CC2)OC1=O` [Compound 29, 8-cyclohexyl-3-methyl-4-{[7-(trifluoromethyl)-3,4-dihydroisoquinolin-2(1H)-yl]carbonyl}-1-oxa-8-azaspiro[4.5]dec-3-en-2-one] gave a Ki of under 50 nM.
